Series [1] has as its system Escherichia coli (strain JM109). The series can be described thus: MIC determination against Escherichia coli (Andrews protocol). It counts as cell-based. The settings on record: for MIC: Escherichia coli, read-out: MIC E. coli. How it is done:
(§1) Minimum Inhibitory Concentrations (MICs) for the compounds prepared were determined against Escherichia coli (strain JM109) and Staphylococcus aureus (strain 9518) using the protocols described by Andrews (J. Antimicrob. Chemother., 2001, 48, Suppl. S1, 5-16).

Series [2] has as its system Staphylococcus aureus (strain 9518). The series is described as follows: MIC determination against Staphylococcus aureus (Andrews protocol). It counts as cell-based. The settings on record: for MIC: Staphylococcus aureus, read-out: MIC S. aureus. As for the experimental part:
as §1

Series [3] deals with methicillin-resistant staphylococcus aureus (MRSA) strain MRSA-III (ST239). The series can be described thus: MIC against MRSA strain MRSA-III (ST239). The class given is cell-based. The settings on record: read-out: MIC against MRSA-III. How it is done: as §1
(§2) In addition, three compounds were tested against methicillin-resistant staphylococcus aureus (MRSA) strains MRSA-III (ST239) and EMRSA-15.

For series [4], the system named is methicillin-resistant staphylococcus aureus (MRSA) strain EMRSA-15. The series is described as follows: MIC against MRSA strain EMRSA-15. The class given is cell-based. As for the experimental part: as §1, §2
Setting [5] is: Staphylococcus aureus strain 9518.

The values that follow come from US20170342025A1, “ANTIMICROBIAL COMPOUNDS, COMPOSITIONS AND METHODS” (Swansea University, priority 2014, published 2017).

Read-outs that look alike come from different tables or passages of the source.

Usually MIC stands for the lowest concentration that inhibits growth of the organism. Broadly, the melting point is the temperature of the solid-liquid transition. `N=C(N)Nc1cccc2c1CCCC2.O=C(O)C(F)(F)F` [Compound 23d, 1-(5,6,7,8-tetrahydronaphthalen-1-yl)guanidine 2,2,2-trifluoroacetate] returned a melting point of 153 to 155 °C. Further, the MIC in series [1] (Escherichia coli strain JM109) is above 100 µg/mL. Moreover, the minimum inhibitory concentration (MIC) in series [2] (setting [5]) is above 100 µg/mL.
On to `N=C(N)NCc1cccc(OCc2cccc(C(F)(F)F)c2Cl)c1.O=C(O)C(F)(F)F` [Compound 4L, 1-[(3-{[2-chloro-3-(trifluoromethyl)phenyl]methoxy}phenyl)methyl]guanidine 2,2,2-trifluoroacetate], for which the MIC in series [1] was in the range of 1 to 10 µg/mL; in series [2], 10 to 32 µg/mL; in series [3] (MRSA) it was 1 to 10 µg/mL; in series [4] (MRSA, read-out: MIC against MRSA-1), 1 to 10 µg/mL.
`Cl.N=C(N)N/N=C/c1cccc(OCc2ccc(C(F)(F)F)cc2)c1Cl` [Compound 51k, (E)-Amino(2-(2-chloro-3-((4-(trifluoromethyl)benzyl)oxy)benzylidene)hydrazinyl) methaniminium chloride] came in with a melting point of 245 to 247 °C. For the same molecule, in series [1] (Escherichia coli strain JM109), the MIC was in the range of 10 to 32 µg/mL. Further, in series [2] (setting [5]), the MIC was 10 to 32 µg/mL.
With `COc1cccc(COc2cccc(/C=N/NC(=N)N)c2Cl)c1Cl.Cl` [Compound 51a, (E)-Amino(2-(2-chloro-3-((2-chloro-3-methoxybenzyl)oxy)benzylidene) hydrazinyl)methaniminium chloride], the melting point is 258 to 260 °C. In addition, the minimum inhibitory concentration (MIC) in series [1] (Escherichia coli strain JM109) lay within 32 to 100 µg/mL. In series [2] (setting [5]), the MIC lay within 32 to 100 µg/mL.
For `Cl.N=C(N)N/N=C/c1cccc(OCc2cccc(Cl)c2Cl)c1Cl` [Compound 51d, (E)-Amino(2-(2-chloro-3-((2,3-dichlorobenzyl)oxy)benzylidene)hydrazinyl) methaniminium chloride], the melting point lay in the range of 250 to 253 °C. Moreover, the minimum inhibitory concentration (MIC) in series [1] (Escherichia coli strain JM109) was 1 to 10 µg/mL. Also, the minimal inhibitory concentration (MIC) in series [2] (setting [5]) lay within 32 to 100 µg/mL.
Turning to `Cl.N=C(N)N/N=C/c1cccc(OCc2ccc(C(F)(F)F)cc2)c1` [Compound 49d, (E)-Amino(2-(3-((4-(trifluoromethyl)benzyl)oxy)benzylidene) hydrazinyl) methaniminium chloride], the melting point was in the range of 176 to 179 °C. The “MIC E. coli” value in series [1] (Escherichia coli strain JM109) was “+++ (MIC 1-10 μg/mL)”. For the same molecule, the “MIC S. aureus” value in series [2] (setting [5]) is reported as “++ (MIC 10-32 μg/mL)”.
Molecule `Cl.N=C(N)N/N=C/c1cccc(OCc2ccc(Cl)cc2)c1` yielded a melting point of 191 to 193 °C.
`CC(=O)O.N=C(N)NN=Cc1cccc(OCc2cccc(C(F)(F)F)c2Cl)c1` [Compound 49b, 1-{[(3-{[2-chloro-3-(trifluoromethyl)phenyl]methoxy}phenyl)methylidene]amino} guanidine acetate]: the melting point was 190 to 192 °C. The MIC in series [1] (Escherichia coli strain JM109) is 1 to 10 µg/mL. In series [2] (setting [5]), the MIC is 1 to 10 µg/mL.
Consider `Cl.N=C(N)N/N=C/c1cccc(OCc2ccccc2)c1Cl` [Compound 51b, (E)-Amino(2-(3-(benzyloxy)-2-chlorobenzylidene)hydrazinyl)methaniminium chloride], for which the melting point lay within 203 to 205 °C. In addition, the MIC in series [1] (Escherichia coli strain JM109) lay in the range of 1 to 10 µg/mL. Moreover, in series [2] (setting [5]), the minimum inhibitory concentration (MIC) is 1 to 10 µg/mL.
`Cl.N=C(N)N/N=C/c1cccc(OCc2ccc(Cl)c(Cl)c2)c1Cl` [Compound 51h, (E)-Amino(2-(2-chloro-3-((3,4-dichlorobenzyl)oxy)benzylidene)hydrazinyl) methaniminium chloride] yielded a melting point of 230 to 233 °C. Further, the minimal inhibitory concentration (MIC) in series [1] (Escherichia coli strain JM109) is 1 to 10 µg/mL. Also, in series [2] (setting [5]), the MIC is 1 to 10 µg/mL.
For the molecule `Cl.N=C(N)N/N=C/c1cccc(OCc2ccc(Cl)cc2)c1Cl` [Compound 51c, (E)-Amino(2-(2-chloro-3-((4-chlorobenzyl)oxy)benzylidene)hydrazinyl) methaniminium chloride], the melting point is 237 to 239 °C. In series [1] (Escherichia coli strain JM109), the minimal inhibitory concentration (MIC) lay within 1 to 10 µg/mL. In series [2] (setting [5]), the MIC lay in the range of 1 to 10 µg/mL.
`Cl.N=C(N)N/N=C/c1cccc(OCc2cc(Cl)cc(Cl)c2Cl)c1Cl` [Compound 51i, (E)-Amino(2-(2-chloro-3-((2,3,5-trichlorobenzyl)oxy)benzylidene)hydrazinyl) methaniminium chloride] displayed a melting point of 273 to 276 °C. The MIC in series [1] (Escherichia coli strain JM109) is 32 to 100 µg/mL. Also, the MIC in series [2] (setting [5]) lay in the range of 32 to 100 µg/mL.
The molecule `Cl.N=C(N)N/N=C/c1cccc(OCc2cccc(C(F)(F)F)c2)c1Cl` registered a melting point of 198 to 201 °C.
On to `N=C(N)Nc1ccc(OCc2ccccc2)cc1.O=C(O)C(F)(F)F` [Compound 23a, 1-[4-(benzyloxy)phenyl]guanidine 2,2,2-trifluoroacetate], for which the MIC is above 100 µg/mL in series [1] (Escherichia coli strain JM109) and 1 to 10 µg/mL in series [2] (setting [5]).
For the molecule `N=C(N)NCc1cccc(N)c1.O=C(O)C(F)(F)F` [Compound 53a, Amino((3-aminobenzyl)amino)methaniminium 2,2,2-trifluoroacetate], the minimal inhibitory concentration (MIC) in series [1] and in series [2] was 32 to 100 µg/mL each time.
As to `N=C(N)NCc1ccc(OCc2cccc(Cl)c2)cc1.O=C(O)C(F)(F)F` [Compound 19c, 1-(4-((3-chlorobenzyl)oxy)benzyl)guanidine 2,2,2-trifluoroacetate], the minimal inhibitory concentration (MIC) in series [1] (Escherichia coli strain JM109) is above 100 µg/mL; in series [2] (setting [5]), 10 to 32 µg/mL.
Consider `N=C(N)NCc1cccc(OCc2cc(Cl)ccc2Cl)c1.O=C(O)C(F)(F)F` [Compound 4f, 1-({3-[(2,5-dichlorophenyl)methoxy]phenyl}methyl)guanidine 2,2,2-trifluoroacetate], for which the values for the minimum inhibitory concentration (MIC) in series [1] and in series [2] were 10 to 32 µg/mL and 1 to 10 µg/mL, respectively.
With `N=C(N)NCc1cccc(OCc2ccc(F)cc2)c1.O=C(O)C(F)(F)F` [Compound 4k, 1-({3-[(4-fluorophenyl)methoxy]phenyl}methyl)guanidine 2,2,2-trifluoroacetate], the minimal inhibitory concentration (MIC) in series [1] was in the range of 10 to 32 µg/mL; in series [2], 32 to 100 µg/mL.
Regarding `N=C(N)NCc1ccc(OCc2cccc(Cl)c2Cl)cc1.O=C(O)C(F)(F)F` [Compound 19e, 1-(4-((2,3-dichlorobenzyl)oxy)benzyl)guanidine 2,2,2-trifluoroacetate], the minimal inhibitory concentration (MIC) in series [1] (Escherichia coli strain JM109) is 1 to 10 µg/mL; in series [2] (setting [5]) it was 10 to 32 µg/mL; in series [3] (MRSA-III (ST239)) it was 1 to 10 µg/mL; in series [4] (second MRSA strain, text names EMRSA-15, read-out: MIC against MRSA-1) it was 1 to 10 µg/mL.
In the case of `N=C(N)NCc1cccc(NS(=O)(=O)c2cccc(Cl)c2)c1.O=C(O)C(F)(F)F` [Compound 55e, Amino((3-((3-chlorophenyl)sulfonamido)benzyl)amino)methaniminium 2,2,2-trifluoroacetate], the minimum inhibitory concentration (MIC) in series [1] (Escherichia coli strain JM109) and in series [2] (setting [5]) was 32 to 100 µg/mL throughout.
`CC(=O)O.N=C(N)N/N=C/c1cccc(OCc2cccc(C(F)(F)F)c2)c1Cl` [Compound 51j, (E)-Amino(2-(2-chloro-3-((3-(trifluoromethyl)benzyl)oxy)benzylidene)hydrazinyl) methaniminium acetate] showed a melting point of 183 to 187 °C. Moreover, in series [1] (Escherichia coli strain JM109), the minimum inhibitory concentration (MIC) fell in the range of 1 to 10 µg/mL. Moreover, in series [2] (setting [5]), the MIC was 1 to 10 µg/mL.
The molecule `Cl.N=C(N)N/N=C/c1cccc(OCc2ccc(Cl)cc2Cl)c1Cl` [Compound 51f, (E)-Amino(2-(2-chloro-3-((2,4-dichlorobenzyl)oxy)benzylidene)hydrazinyl) methaniminium chloride] returned a melting point of 268 to 270 °C. In addition, the minimum inhibitory concentration (MIC) in series [1] (Escherichia coli strain JM109) lay in the range of 1 to 10 µg/mL. In addition, the minimal inhibitory concentration (MIC) in series [2] (setting [5]) fell in the range of 32 to 100 µg/mL.
For `Cl.N=C(N)N/N=C/c1cccc(OCc2cccc(C(F)(F)F)c2Cl)c1Cl` [Compound 51e, (E)-Amino(2-(2-chloro-3-((2-chloro-3-(trifluoromethyl)benzyl)oxy)benzylidene) hydrazinyl)methaniminium chloride] the same measures were 274 to 277 °C, 1 to 10 µg/mL and 32 to 100 µg/mL.
Turning to `CC(=O)O.[H]/N=C(\N)NN=Cc1ccc(OC)c(OCc2ccc(Cl)c(Cl)c2)c1` [Compound 49g, (E)-2-(3-((3,4-dichlorobenzyl)oxy)-4-methoxybenzylidene)hydrazine-1-carboximidamide acetate], the results for the MIC in series [1] (Escherichia coli strain JM109) and in series [2] (setting [5]) were 1 to 10 µg/mL and 10 to 32 µg/mL, respectively.
For `N=C(N)NCc1cccc(OCc2cccc(C(F)(F)F)c2)c1.O=C(O)C(F)(F)F` [Compound 4i, 1-[(3-{[3-(trifluoromethyl)phenyl]methoxy}phenyl)methyl]guanidine 2,2,2-trifluoroacetate], the minimal inhibitory concentration (MIC) in series [1] and in series [2] was 1 to 10 µg/mL throughout.
`N=C(N)Nc1ccc(OCc2cccc(Cl)c2)cc1.O=C(O)C(F)(F)F` [Compound 23c, 1-{4-[(3-chlorophenyl)methoxy]phenyl}guanidine 2,2,2-trifluoroacetate]: the MIC in series [1] (Escherichia coli strain JM109) is above 100 µg/mL; in series [2] (setting [5]), 10 to 32 µg/mL.
Taken in the same sequence, the figures for `Cl.N=C(N)N/N=C/c1cccn1Cc1cccc(C(F)(F)F)c1` [Compound 61g, (E)-Amino(2-((1-(3-(trifluoromethyl)benzyl)-1H-pyrrol-2-yl)methylene) hydrazinyl)methaniminium chloride] were 10 to 32 µg/mL and 10 to 32 µg/mL.
`Cl.N=C(N)N/N=C/c1cccc(OCc2cc(Cl)ccc2Cl)c1Cl` [Compound 51g, (E)-Amino(2-(2-chloro-3-((2,5-dichlorobenzyl)oxy)benzylidene)hydrazinyl) methaniminium chloride] returned a melting point of 242 to 244 °C. Further, in series [1] (Escherichia coli strain JM109), the MIC was 10 to 32 µg/mL. Also, the MIC in series [2] (setting [5]) is 32 to 100 µg/mL.
`COCCN(Cc1cccc(OCc2cccc(Cl)c2Cl)c1)C(=N)N.O=C(O)C(F)(F)F` [Compound 9b, 1-({3-[(2,3-dichlorophenyl)methoxy]phenyl}methyl)-1-(2-methoxyethyl) guanidine 2,2,2-trifluoroacetate]: the MIC in series [1] (Escherichia coli strain JM109) and in series [2] (setting [5]) was 10 to 32 µg/mL in each case.
